Reference: the supplement of paper PMC10307832

How the values were obtained:
Assay in all cases: relative viability (nuclei count vs DMSO), 5 days (fraction); higher = more cells survive
MK-8033 + Bortezomib = compound: Cn1cc(-c2cnc3ccc4ccc(CS(=O)(=O)NCc5ccccn5)cc4c(=O)c3c2)cn1 [MK-8033] + CC(C)C[C@H](NC(=O)[C@H](Cc1ccccc1)NC(=O)c1cnccn1)B(O)O [Bortezomib] (partner 0.002 µM)
In short: (§1)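 Relative viability divides the nuclei count in treated wells by that in vehicle wells. Lung cancer cell lines were seeded in 1536-well plates, dosed by pin tool the next day, and fixed and stained after 5 days in one step with final 0.05% Triton X-100, 1% formaldehyde and 1 ug/ml Hoechst. Dosing was a single drug or a fixed anchor-drug dose plus five library-drug doses (not always all listed) in √10 steps, and values are medians of duplicate plates imaged at 4×.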

Irinotecan + Foretinib = compound: CCc1c2c(nc3ccc(OC(=O)N4CCC(N5CCCCC5)CC4)cc13)-c1cc3c(c(=O)n1C2)COC(=O)[C@]3(O)CC [Irinotecan] + COc1cc2c(Oc3ccc(NC(=O)C4(C(=O)Nc5ccc(F)cc5)CC4)cc3F)ccnc2cc1OCCCN1CCOCC1 [Foretinib] (partner 0.25 µM)
In short: as §1

RU-SKI 43 + Foretinib = compound: CC[C@@H](C)CNCC(=O)N1CCC2=C([C@@H]1COC3=CC=CC(=C3)C)C=CS2 [RU-SKI 43] + COc1cc2c(Oc3ccc(NC(=O)C4(C(=O)Nc5ccc(F)cc5)CC4)cc3F)ccnc2cc1OCCCN1CCOCC1 [Foretinib] (partner 0.25 µM)
In short: as §1

MK-8033 + Luminespib = compound: Cn1cc(-c2cnc3ccc4ccc(CS(=O)(=O)NCc5ccccn5)cc4c(=O)c3c2)cn1 [MK-8033] + CCNC(=O)c1noc(-c2cc(C(C)C)c(O)cc2O)c1-c1ccc(CN2CCOCC2)cc1 [Luminespib] (partner 0.01 µM)
In short: as §1

Cell Line | relative viability (MK-8033 + Bortezomib; first compound 0.02 µM) | relative viability (MK-8033 + Bortezomib; first compound 0.06325 µM) | relative viability (MK-8033 + Bortezomib; first compound 0.2 µM) | relative viability (MK-8033 + Bortezomib; first compound 0.6325 µM) | relative viability (MK-8033 + Bortezomib; first compound 2 µM) | relative viability (Irinotecan + Foretinib; first compound 0.6325 µM) | relative viability (Irinotecan + Foretinib; first compound 2 µM) | relative viability (Irinotecan + Foretinib; first compound 6.325 µM) | relative viability (Irinotecan + Foretinib; first compound 20 µM) | relative viability (RU-SKI 43 + Foretinib; first compound 0.1 µM) | relative viability (RU-SKI 43 + Foretinib; first compound 0.3162 µM) | relative viability (RU-SKI 43 + Foretinib; first compound 1 µM) | relative viability (RU-SKI 43 + Foretinib; first compound 3.162 µM) | relative viability (RU-SKI 43 + Foretinib; first compound 10 µM) | relative viability (MK-8033 + Luminespib; first compound 0.02 µM) | relative viability (MK-8033 + Luminespib; first compound 0.06325 µM) | relative viability (MK-8033 + Luminespib; first compound 0.2 µM) | relative viability (MK-8033 + Luminespib; first compound 0.6325 µM) | relative viability (MK-8033 + Luminespib; first compound 2 µM)
NCI-H596 | 1.18 | 0.933 | 0.882 | 0.941 | 1.09 | 0.841 | 0.783 | 0.621 | 0.632 | 0.955 | 0.676 | 0.886 | 0.989 | 0.931 | 1.02 | 0.987 | 0.802 | 1.01 | 0.946
LXF-289 | 0.989 | 0.964 | 0.985 | 0.999 | 0.978 | 1.05 | 0.615 | 0.167 | 0.2 | 0.934 | 1.03 | 1.05 | 1.09 | 0.97 | 0.66 | 0.654 | 0.591 | 0.665 | 0.643
NCI-H727 | 0.873 | 0.62 | 0.882 | 0.993 | 0.857 | 0.65 | 0.501 | 0.477 | 0.379 | 1.11 | 0.879 | 1.2 | 1.07 | 0.863 | 0.434 | – | 0.291 | 0.346 | 0.516
NCI-H2009 | 1.03 | 1.09 | 0.954 | 0.95 | 0.984 | 0.973 | 0.688 | 0.311 | 0.16 | 1.21 | 1.42 | 1.31 | 1.24 | 1.17 | 0.987 | 0.921 | 0.978 | 0.999 | 1
NCI-H1993 | 0.498 | 0.804 | 0.794 | 0.816 | 0.853 | 0.769 | 0.663 | 0.706 | 0.644 | 0.747 | 0.889 | 0.786 | 0.801 | 0.729 | 0.733 | 0.838 | 0.827 | 0.964 | 0.73
NCI-H322M | 1.29 | 1.2 | 1.11 | 1.14 | 1.18 | 0.971 | 0.882 | 0.491 | 0.368 | 0.939 | 1.09 | 1.11 | 1.03 | 0.892 | 0.85 | 0.85 | 0.78 | 0.873 | 0.842
